The values that follow are results of earlier work, collected in US7713553B2, “Method of manufacture of a liquid pesticide containing copper and a liquid pesticide containing copper” (Genics Inc., priority 2001, dated 2010).

Regarding `[Cu+2].[OH-].[OH-]` [copper hydroxide], the solubility in water entry is recorded as “almost insoluble”.
